Results taken from US6846804B2 (priority 2000, dated 2005).

Tests used:
[1] = tested on: B. cereus T spores; type: cell-based, Bacillus cereus T
[2] = tested on: spores of Bacillus; settings: cited from earlier work

Substance: Sublancin
- halo (inhibition of spore germination/outgrowth) [1]: clear halo
- inhibition of outgrowth of spores [2]: highly active
